# Data published in patent publication US20030195183A1, “Method for correcting immune system of live body” (priority 2000, published 2003).
# Entries after “also recorded” stand apart in the source; their conditions may differ. Where two headings read alike, the source gives them in different places.
# Experiments:
# [1] = test system: natural killers (CD3−, CD16+ and CD56+); experiment: cytotoxic activity of natural killers against K-562 cells; assay type: cell-based, human
# Description: Labeled cells of […] of myeloblastoid Strain K-562, as well as mononuclear cells of 10 healthy blood donors and 10 patients with various diseases with low and high levels of cytotoxicity, were used for the study of effects of various concentrations of the preparation on cytotoxic activity of natural killers (CD3^−, CD16^+ and CD56^+).
# The used Strain K-562 cells to effector cells ratio was 1:25 (100 μl of labeled cells and 100 μl of mononuclear cells). The studies were carried out using 96-well plates; incubation for 16 to 24 hours in a CO2-incubator at 37° C. was carried out. Then, the contents of the wells was transferred to filters, washed, dried and placed in solution with scintillation liquid with consecutive determination of index using a β-counter. Cytotoxic index (CI) was calculated using the following formula: [formula]
# A=the target cells radioactivity in the presence of effector cells;
# B=radioactivity after cells treatment with […] (maximum value);
# C=radioactivity of target cells in the absence of effector cells.
# Strain 264 E. Coli = experiment: non-specific resistivity of mice infected with E. Coli; assay type: in vivo, Strain C57BL6 mice; parameters: Mean lifetime: unit not given beside the values
# Description: Doses of the preparation ranging from 200 to 0.2 μg were injected intraperitoneally at ten-fold intervals in 0.5 ml of physiologic solution to Strain C57BL6 mice two hours before their infecting. Mice were infected with S. Typhi in a dose of 1·10^4 microbial cells; another group of animals was infected with Strain 264 E. coli in a dose of […] microbial cells. Mice infected with the same microbial culture, but receiving no preparation, were used a controls. Lethal outcomes in mice were recorded every day for a period of 10 days.
# [2] = test system: cellular immune response (DHR to ram erythrocytes); experiment: delayed hypersensitivity reaction (DHR) in mice; assay type: in vivo
# Description: To evaluate the effect of the preparation on cellular immunity reaction, delayed hypersensitivity reaction (DHR) was used. The mice were sensitized by subcutaneous injection of 1·10^7 ram erythrocytes contained in a volume of 20 μl. Doses of the preparation ranging from 0.2 to 2,000 μg were injected at ten-fold intervals simultaneously with sensitizing and shocking dose of the antigen. Shocking dose of ram erythrocytes (1·10^8) was injected under aponeurotic plate of left hind paw on the 5th day after sensitization. Injection of 20 μl of physiologic solution in the right paw served as control. Intensity of inflammatory reaction was recorded 24 hours after the administration of shocking dose of the antigen. For this purpose, the mice were killed and, immediately after this, both paws were amputated at the level of ankle joint and weighed on torsion balance. Reaction index (RI) was determined as the difference of masses of study (S) and control (C) paws using the following formula: [formula]
# Description for spleen cell culture: Effects of the compounds on lymphoid cells proliferation and interleukin-2 induction in vitro were evaluated with the use of Strain BalB/c mice weighing 16 to 18 g. Animals of control and study groups were matched by sex and weight. Each dose of the preparation was tested on 10 animals; as a whole, more than 800 mice have been studied.
# Spleens of the animals were used for carrying out the immunologic reactions. The organs were cut and homogenized in a glass homogenizer. […] The suspensions were centrifuged in a K23 centrifuge at 1,500 rpm at 4° C. for 10 minutes.
# The suspensions were diluted 100-fold with 3% acetic acid contrasted with methylene blue, and cells were counted in Goryaev's chamber. Cell viability was evaluated with aid of 0.1% trypan blue in physiologic solution.
structure (smiles),measurement,setting,value
"Cl.Nc1cccc2c(=O)[nH][nH]c(=O)c12 [5-amino-2,3-dihydrophthalazine-1,4-dione hydrochloride]",lymphoid cells proliferation,"spleen cell culture; 2.5 μg/ml, ConA",195 ± 27
same,lymphoid cells proliferation,"spleen cell culture; 2.5 μg/ml, LPS",251 ± 44
same,lymphoid cells proliferation,"spleen cell culture; 2.5 μg/ml, no mitogen",249 ± 93
same,lymphoid cells proliferation,"spleen cell culture; 12.5 μg/ml, ConA",178 ± 28
same,lymphoid cells proliferation,"spleen cell culture; 12.5 μg/ml, LPS",256 ± 40
same,lymphoid cells proliferation,"spleen cell culture; 12.5 μg/ml, no mitogen",369 ± 56
same,mitogenic properties,spleen cell culture; 50 μg/ml to 12.5 mg/ml,no mitogenic properties
same,lymphoid cells proliferation,"spleen cell culture; 50 μg/ml, ConA",11860 ± 1566
same,lymphoid cells proliferation,"spleen cell culture; 50 μg/ml, LPS",13232 ± 928
same,lymphoid cells proliferation,"spleen cell culture; 50 μg/ml, no mitogen",2576 ± 237
same,lymphoid cells proliferation,"spleen cell culture; 500 μg/ml, ConA",1323 ± 192
same,lymphoid cells proliferation,"spleen cell culture; 500 μg/ml, LPS",3870 ± 308
same,lymphoid cells proliferation,"spleen cell culture; 500 μg/ml, no mitogen",1763 ± 94
same,spontaneous proliferation of spleen cells and proliferation induced by ConA and LPS,spleen cell culture; higher concentrations,inhibited
"CNc1cccc2c(=O)[nH][nH]c(=O)c12.[Na] [sodium salt of 5-methylamino-2,3-dihydrophthalazine-1,4-dione]","Cytotoxic index level, % (M)","[1]; 2.5 μg/ml, High control level of CI",57 ± 0.7%
same,"Cytotoxic index level, % (M)","[1]; 2.5 μg/ml, Low control level of CI",34 ± 1.3%
same,"Cytotoxic index level, % (M)","[1]; 2.5 μg/ml, Medium control level of CI",41.9 ± 0.9%
same,"CI, %","[1]; 2.5 μg/ml, normal level of CI",41.9 ± 2.8%
same,"Cytotoxic index level, % (M)","[1]; 5.0 μg/ml, High control level of CI",54 ± 0.8%
same,"Cytotoxic index level, % (M)","[1]; 5.0 μg/ml, Low control level of CI",30 ± 1.2%
same,"CI, %","[1]; 5.0 μg/ml, normal level of CI",38.8 ± 3.1%
same,"CI, %","[1]; 10.0 μg/ml, normal level of CI",40.8 ± 3.0%
same,"CI, %","[1]; 25.0 μg/ml, normal level of CI",41.4 ± 3.0%
same,"CI, %","[1]; 50.0 μg/ml, normal level of CI",39.1 ± 4.0%
same,"CI, %","[1]; 75.0 μg/ml, normal level of CI",37.7 ± 4.1%
same,"CI, %","[1]; 150.0 μg/ml, normal level of CI",41.0 ± 3.5%
same,"CI, %","[1]; 300.0 μg/ml, normal level of CI",39.0 ± 3.1%
same,cytotoxicity of natural killers,"[1]; 2.5 and 5.0 μg/ml, high initial level of CI",statistically significant inhibition
same,functional activity of natural killers,"[1]; 2.5 and 5.0 μg/ml, low initial level of CI",statistically significant stimulation
same,modification of natural killers cytotoxicity,"[1]; 2.5 to 300 μg/ml, normal level of CI",did not cause significant modification
"Nc1cccc2c(=O)[nH][nH]c(=O)c12.[Ca] [calcium salt of 5-amino-2,3-dihydrophthalazine-1,4-dione]",Mean lifetime,Strain 264 E. Coli; dose 0.2 μg,2.2
same,"Number of lethal outcomes, day 1","Strain 264 E. Coli; dose 0.2 μg i.p., 10 mice",4
same,"Number of lethal outcomes, day 3","Strain 264 E. Coli; dose 0.2 μg i.p., 10 mice",6
same,increase in lifetime of animals infected with E. Coli,"Strain 264 E. Coli; dose 0.2 μg, versus controls",2.2 fold
same,Mean lifetime,Strain 264 E. Coli; dose 2 μg,1.0
same,"Number of lethal outcomes, day 1","Strain 264 E. Coli; dose 2 μg i.p., 10 mice",10
same,Mean lifetime,Strain 264 E. Coli; dose 20 μg,1.0
same,"Number of lethal outcomes, day 1","Strain 264 E. Coli; dose 20 μg i.p., 10 mice",10
same,Mean lifetime,Strain 264 E. Coli; dose 200 μg,1.0
same,"Number of lethal outcomes, day 1","Strain 264 E. Coli; dose 200 μg i.p. two hours before infecting, 10 mice",10
same,effects on the resistivity of mice infected with E. Coli,Strain 264 E. Coli; doses 200 to 2 μg,no effects
"Nc1ccc2c(=O)[nH][nH]c(=O)c2c1.[Na] [sodium salt of 6-amino-2,3-dihydrophthalazine-1,4-dione]",Reaction index,"[2]; 2 μg, Strain C57BL6 mice",19 ± 9
same,Reaction index,"[2]; 2 μg, Strain CBA mice",11 ± 8
same,Reaction index,"[2]; 20 μg, Strain C57BL6 mice",16 ± 9
same,Reaction index,"[2]; 20 μg, Strain CBA mice",10 ± 5
same,Reaction index,"[2]; 200 μg, Strain C57BL6 mice",15 ± 6
same,Reaction index,"[2]; 200 μg, Strain CBA mice",2 ± 1.5
same,development of DHR,"[2]; 200 μg, high-reaction Strain CBA mice",inhibition of DHR; also recorded: suppressed
same,development of DHR,"[2]; 20 to 2 μg, mice of both strains",no effect
same,reaction index (trend),"[2]; mice of both strains, as the dose of the preparation decreased",tendency to increase
